These results are taken from PubChem BioAssay (NCI).

Test systems include HT29 colon; HOP-92 NSCLC; UO-31 renal; BT-549 breast; KM12 colon; COLO 205 colon; MOLT-4 leukemia; SK-MEL-2 melanoma; HCC-2998 colon; EKVX NSCLC.
What all share (test): inhibition of tumour cell growth, NCI panel, 48 h

Values joined by “and” are separate entries in the source; they are usually repeats but may differ in a detail not shown here. Equal entries are not always repeated.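 Test compounds were applied to cells in 96-well plates for 48 hours at 5 doses. GI50 = concentration required for 50% inhibition of growth. At the TGI there is no net growth.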

Take `NC(=O)c1sc(-n2cnc3ccc(C(F)(F)F)cc32)cc1OCc1ccccc1Br`: the GI50 with HT29 colon is 0.858 µM; with HOP-92 NSCLC it was 2.5 µM; with UO-31 renal it was 5.48 µM; in the test with BT-549 breast, 3.21 µM; in the test on KM12 colon, 0.723 µM; with COLO 205 colon it was 0.802 µM. In addition, the GI50 with MOLT-4 leukemia was 0.965 µM; with SK-MEL-2 melanoma, 1.31 µM; with HCC-2998 colon, 2.4 µM; in the test with EKVX NSCLC, greater than 21.3 µM. Also, the TGI in the test on HT29 colon is greater than 25 µM; with HOP-92 NSCLC, 16.8 µM; in the test on UO-31 renal, greater than 25 µM; with BT-549 breast, greater than 25 µM; in the test on KM12 colon, 2.87 µM; in the test on COLO 205 colon it was 3.44 µM. Also, the TGI with MOLT-4 leukemia was greater than 25 µM; in the test with SK-MEL-2 melanoma, 11.3 µM; with HCC-2998 colon, greater than 23.1 µM; in the test on EKVX NSCLC it was greater than 25 µM.

For the compound `COc1cc(OC)c(F)c(COc2cnc(Nc3cnn(CCO)c3)nc2)c1F`, the GI50 in the test with HT29 colon was 0.36 µM; with HOP-92 NSCLC, 0.767 µM; in the test with UO-31 renal, 0.556 µM; in the test on BT-549 breast, 0.177 µM; with KM12 colon, 0.431 µM; with COLO 205 colon it was 0.607 µM. Also, the GI50 in the test on MOLT-4 leukemia was 0.668 µM; in the test with SK-MEL-2 melanoma it was 0.404 µM; in the test with HCC-2998 colon, 2.51 µM; with EKVX NSCLC, 1.94 µM. For the same compound, the TGI in the test with HT29 colon is 4.31 µM; in the test with HOP-92 NSCLC it was 5.4 µM; with UO-31 renal, greater than 20.5 µM; in the test on BT-549 breast, greater than 100 µM; in the test on KM12 colon, 7.23 µM; in the test with COLO 205 colon, 3.14 µM. For the same compound, the TGI in the test with MOLT-4 leukemia was greater than 100 µM; with SK-MEL-2 melanoma, 2.71 µM; in the test with HCC-2998 colon, greater than 100 µM; in the test with EKVX NSCLC, greater than 100 µM.

Consider `O=C1/C(=C/c2ccc(Cl)c(Cl)c2)CNC/C1=C\c1ccc(Cl)c(Cl)c1`, for which the TGI with HT29 colon was 45.2 µM; in the test on HOP-92 NSCLC it was 50.7 µM; in the test on UO-31 renal, 32.2 µM; in the test with BT-549 breast, 87.2 µM; with KM12 colon, 24.9 µM; with COLO 205 colon, 17.3 µM. The TGI in the test on MOLT-4 leukemia is 28.3 µM; in the test with SK-MEL-2 melanoma it was 49.3 µM; in the test with HCC-2998 colon, 21.7 µM; in the test with EKVX NSCLC it was 13.6 µM.

In the case of `Nc1nc(-c2ccc(Cl)cc2)cc(-c2ccc(Cl)cc2)c1-c1nc2ccccc2o1`, the GI50 is 11.1 µM in the test with HT29 colon; 6.24 µM in the test with HOP-92 NSCLC; 14.8 µM with UO-31 renal; 18.1 µM in the test with BT-549 breast; 12.2 µM in the test on KM12 colon; 21 µM in the test with COLO 205 colon. Moreover, the GI50 in the test with MOLT-4 leukemia was 12.1 µM; in the test with SK-MEL-2 melanoma, 16.6 µM; in the test on HCC-2998 colon, 16.9 µM; with EKVX NSCLC, 16.3 µM. Further, the TGI came to 36.1 µM in the test on HT29 colon; 21.2 µM with HOP-92 NSCLC; 29.9 µM in the test on UO-31 renal; 33.4 µM in the test on BT-549 breast; 27.2 µM in the test on KM12 colon; 39.5 µM in the test on COLO 205 colon. For the same compound, the TGI with MOLT-4 leukemia came to 27.4 µM; with SK-MEL-2 melanoma it was 33.4 µM; in the test on HCC-2998 colon, 33.3 µM; in the test with EKVX NSCLC, 31.4 µM.

As to `COc1cc(-c2nc(-c3ccc(-c4nc5ccc(F)cc5[nH]4)cc3)no2)cc(OC)c1OC`, the GI50 in the test on HT29 colon was 3.69 µM; in the test with HOP-92 NSCLC it was 1.76 µM; with UO-31 renal, 2.51 µM; with BT-549 breast, 3.49 µM; in the test with KM12 colon, 3.08 µM; with COLO 205 colon, 4.77 µM. The GI50 in the test with MOLT-4 leukemia is 1.99 µM; in the test on SK-MEL-2 melanoma it was 4.21 µM; in the test on HCC-2998 colon, 6.13 µM; in the test on EKVX NSCLC, 3.45 µM. Also, the TGI in the test with HT29 colon stood at 17.7 µM; in the test with HOP-92 NSCLC it was 13.9 µM; with UO-31 renal, 6.3 µM; with BT-549 breast, 11.1 µM; with KM12 colon, 8.98 µM; in the test on COLO 205 colon, 17 µM. The TGI in the test with MOLT-4 leukemia was found to be 5.44 µM; in the test with SK-MEL-2 melanoma, 13.4 µM; in the test on HCC-2998 colon it was 40.4 µM; with EKVX NSCLC it was 27.4 µM.

On to `CN(C)c1ccc2cc3ccc(N(C)C)cc3nc2c1`, for which the TGI in the test on HT29 colon was found to be 1.81 µM; with HOP-92 NSCLC it was 20 µM; in the test with UO-31 renal, 4.11 µM; in the test on BT-549 breast, 22.1 µM; in the test on KM12 colon, 1.85 µM; with COLO 205 colon, 22.8 µM. The TGI was found to be 21.9 µM in the test on SK-MEL-2 melanoma, 2.64 µM in the test on HCC-2998 colon and 7.21 µM in the test with EKVX NSCLC.

For `CC(=O)Nc1ccc(-c2csc(Nc3cccc(-c4csc(-c5ccccc5)n4)c3)n2)cc1`, the GI50 in the test on HOP-92 NSCLC was 42.9 µM; in the test with UO-31 renal, 16.7 µM; with BT-549 breast, 22.5 µM; in the test on KM12 colon, 24 µM; in the test on COLO 205 colon, 24.2 µM; with MOLT-4 leukemia, greater than 50 µM. Further, the figures for the GI50 in the test with SK-MEL-2 melanoma, with HCC-2998 colon and in the test with EKVX NSCLC were 16.4 µM, 12.5 µM and 20.2 µM, respectively. Moreover, the TGI in the test with HOP-92 NSCLC, with UO-31 renal, in the test on BT-549 breast, with KM12 colon, in the test on COLO 205 colon and in the test with MOLT-4 leukemia was greater than 50 µM in each case. Also, the TGI in the test on SK-MEL-2 melanoma, with HCC-2998 colon and in the test with EKVX NSCLC was greater than 50 µM each time.

As for `O=C1C(Br)=C(Br)C(=O)c2ccccc21`, the TGI with HT29 colon was > 100 µM and 21.8 µM; in the test on HOP-92 NSCLC it was 27 µM and 4.59 µM; in the test on UO-31 renal, 26.7 µM and 14.7 µM; with BT-549 breast, 15.3 µM; in the test on KM12 colon it was 36.9 µM and 33.3 µM; with SK-MEL-2 melanoma, 36.2 µM and 29 µM. Besides, the TGI with HCC-2998 colon was 46.3 µM and 34.5 µM; in the test on EKVX NSCLC, > 100 µM and 39.9 µM. The GI50 is 13.4 µM and 1.73 µM with HOP-92 NSCLC; 13.6 µM and 5.55 µM with UO-31 renal; 7.01 µM and 1.34 µM in the test with MOLT-4 leukemia; 100 µM and 20 µM with EKVX NSCLC.

`O=c1c2c(=NCCN3CCCC3)cc3c(=O)n(CCCN4CCOCC4)c(=O)c4ccc(c(O)n1CCCN1CCOCC1)c2c4-3`: the GI50 in the test with HT29 colon was less than 0.0181 µM; with HOP-92 NSCLC it was 0.129 µM; in the test on BT-549 breast it was 0.917 µM; in the test with KM12 colon, 0.131 µM; with COLO 205 colon, 0.165 µM; with MOLT-4 leukemia, less than 0.0216 µM. The results for the GI50 with SK-MEL-2 melanoma, in the test with HCC-2998 colon and in the test on EKVX NSCLC were 0.239 µM, 0.0603 µM and 0.153 µM, respectively. Further, the TGI worked out at 1.04 µM in the test with HT29 colon; 0.607 µM in the test with HOP-92 NSCLC; 2.99 µM in the test on BT-549 breast; 1.22 µM in the test with KM12 colon; 0.423 µM with COLO 205 colon; 5.71 µM in the test on MOLT-4 leukemia. Also, the TGI with SK-MEL-2 melanoma was 0.874 µM; in the test with HCC-2998 colon it was 0.563 µM; in the test on EKVX NSCLC it was 0.427 µM.
